Drawing on the Deep4Chem optical property database, this text covers emission maximum for 16 compounds.

This data set in a line: solvent given as SMILES.

Several values for one entry are separate records, joined by “and”; a condition that tells them apart may be missing. Identical values can stand only once.

The compound `COc1ccc2c(c1)sc1[n+]2[B-](F)(F)OC(c2ccc(N(C)C)cc2)=N1` yielded an emission maximum (in C1CCOC1) of 466 nm; an emission maximum (in CC#N) of 481 nm; an emission maximum (in CC(C)=O) of 477 nm; an emission maximum (in Cc1ccccc1) of 454 nm; an emission maximum (in ClCCl) of 467 nm.
With `c1ccc(C2c3ccc4ccc5ccccc5c4c3-c3c2ccc2ccc4ccccc4c32)cc1`, the emission maximum (in ClCCl) is 425 nm.
Take `c1cc2ccc3ccc(-c4ccc(-c5nnc(-c6ccc(-c7nnc(-c8ccc(-c9ccc%10ccc%11cccc%12ccc9c%10c%11%12)s8)o7)cc6)o5)s4)c4ccc(c1)c2c34`: the emission maximum is, setting by setting: (in C1COCCO1) 373 nm; (in CC#N) 398 nm; (in CC(=O)N(C)C) 373 nm; (in CCCCCCCCCCO) 418 nm; (in CCCCCCCCO) 393 nm; (in CCCCCCO) 394 nm. The emission maximum by setting is: (in CCCCO) 393 nm; (in CCO) 393 nm; (in CS(C)=O) 374 nm; (in Cc1ccccc1) 419 nm; (in ClC(Cl)Cl) 373 nm.
`Cc1c2c(c(C)c3ccccc13)C1=CC3Nc4ccccc4NC3C=C12` (stereo not drawn): for the setting “in ClC(Cl)Cl”, the emission maximum is given as 502 nm.
In the case of `CCCCCCCCC1(CCCCCCCC)c2cc(-c3ccccc3)ccc2-c2ccc(-c3ccccc3)cc21`, for the setting “in ClC(Cl)Cl”, the emission maximum came to 361 nm.
In the case of `CC1=CC(/C=C/c2ccc(N(C)C)cc2)=[N+]2C1=C(c1ccccc1)c1c(C)cc(/C=C/c3ccc(N(C)C)cc3)n1[B-]2(F)F`, the emission maximum (in ClC(Cl)Cl) amounted to 753 nm.
For `N#Cc1ccc(C#Cc2ccccc2C#N)cc1`, the emission maximum (in ClC(Cl)Cl) was determined as 332 nm.
Where the note is “in ClCCl”, `CC(C)(C)OC(=O)N1CCN(c2ccc3c(-c4ccc(I)cc4)c4ccc(=[N+]5CCN(C(=O)OC(C)(C)C)CC5)cc-4oc3c2)CC1` gave an emission maximum of 585 nm.
As for `C#CCNC1=C2C=CC=[N+]2[B-](F)(F)n2cccc21`, the emission maximum was 482 nm and 486 nm (in C1CCCCC1); 466.5 nm (in CC(C)=O); 463 nm (in CCCCO); 467 nm (in CCCO); 463 nm and 468 nm (in CCO); 469.5 nm (in CCOC(C)=O). For the same compound, the emission maximum was 458 nm (in CN(C)C=O); 464.5 nm (in CO); 463 nm (in CS(C)=O); 485 nm (in Cc1ccccc1); 485 nm (in ClC(Cl)Cl); 480.5 nm (in OCC(F)(F)F). Moreover, the emission maximum (in c1ccccc1) came to 485 nm.
On to `O=c1c2cc(Br)ccc2nc2n1[B-](F)(F)[n+]1ccccc1-2`, for which the emission maximum reads like this: (in CC#N) 440 nm; (in ClCCl) 448 nm.
On to `CCCC1(CCC)c2ccccc2-c2ccc(-c3ccc(OC)cc3)cc21`, for which the emission maximum (in C1CCCCC1) is listed as 345 nm.
On to `COc1ccc(OC)c(-c2[nH]c(=O)n3c2-c2ccccc2C3=O)c1`, for which the emission maximum reads like this: (in CC#N) 466 nm; (in CO) 484 nm; (in ClCCl) 462 nm.
Take `CCCCCCCN1C(=CC2=C([O-])C(=Cc3sc4ccccc4[n+]3CCCCCCC)C2=C(C#N)C#N)Sc2ccccc21`: the emission maximum is, setting by setting: (in C1COCCO1) 723 nm; (in CCO) 711 nm; (in CN(C)C=O) 717 nm; (in ClC(Cl)Cl) 724 nm.
Where the note is “in C1CCCCC1”, `CN(C)c1ccc(/C=C/C=C/c2ccc(B(O)O)cc2)cc1` showed an emission maximum of 441 nm.
On to `Cc1ccc(C2=[N+]3C(=Cc4ccc(C)n4[B-]3(F)F)c3ccccc32)[nH]1`, for which the emission maximum was 621 nm (in C1CCOC1); 620 nm (in CC#N); 613 nm (in CCCCCC); 616 nm (in CO); 623 nm (in Cc1ccccc1); 624 nm (in ClCCl).
Where the note is “in ClCCl”, `CN(C)c1ccc(C#Cc2cc(C#Cc3ccc(C(F)(F)F)cc3)c3ccc4c(C#Cc5ccc(C(F)(F)F)cc5)cc(C#Cc5ccc(N(C)C)cc5)c5ccc2c3c54)cc1` gave an emission maximum of 608 nm.
